Test results from ChEMBL document CHEMBL2331404, “Mono-/dihydroxybenzoic acid esters and phenol pyridinium derivatives as inhibitors of the mammalian carbonic anhydrase isoforms I, II, VII, IX, XII and XIV” (Bioorg Med Chem, 2013).

Legend:
[1] = target: Carbonic anhydrase 2 (Homo sapiens, UniProt P00918)
Description: Inhibition of human carbonic anhydrase 2 preincubated for 15 mins by CO2 hydration stopped-flow assay

[2] = target: Carbonic anhydrase 9 (Homo sapiens, UniProt Q16790)
Description: Inhibition of human carbonic anhydrase 9 preincubated for 15 mins by CO2 hydration stopped-flow assay

[3] = target: Carbonic anhydrase 1 (Homo sapiens, UniProt P00915)
Description: Inhibition of human carbonic anhydrase 1 preincubated for 15 mins by CO2 hydration stopped-flow assay

[4] = target: Carbonic anhydrase 7 (Homo sapiens, UniProt P43166); test: Inhibition of human carbonic anhydrase 7 preincubated for 15 mins by CO2 hydration stopped-flow assay
[5] = target: Carbonic anhydrase 12 (Homo sapiens, UniProt O43570)
[6] = target: Carbonic anhydrase 14 (Homo sapiens, UniProt Q9ULX7)
Carbonic anhydrase 14, sequence (Q9ULX7 whole entry): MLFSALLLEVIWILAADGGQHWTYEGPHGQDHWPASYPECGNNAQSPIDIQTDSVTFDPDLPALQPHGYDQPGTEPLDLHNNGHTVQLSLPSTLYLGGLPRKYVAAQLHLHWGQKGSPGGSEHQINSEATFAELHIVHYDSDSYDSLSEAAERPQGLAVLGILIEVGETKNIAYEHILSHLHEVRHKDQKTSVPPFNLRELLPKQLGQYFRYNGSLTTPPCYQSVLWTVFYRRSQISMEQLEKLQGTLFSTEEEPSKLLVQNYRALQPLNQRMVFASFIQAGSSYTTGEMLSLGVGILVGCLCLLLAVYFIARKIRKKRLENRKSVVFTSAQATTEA
Description: Inhibition of human carbonic anhydrase 14 preincubated for 15 mins by CO2 hydration stopped-flow assay

Carbonic anhydrase 12, sequence (O43570 whole entry): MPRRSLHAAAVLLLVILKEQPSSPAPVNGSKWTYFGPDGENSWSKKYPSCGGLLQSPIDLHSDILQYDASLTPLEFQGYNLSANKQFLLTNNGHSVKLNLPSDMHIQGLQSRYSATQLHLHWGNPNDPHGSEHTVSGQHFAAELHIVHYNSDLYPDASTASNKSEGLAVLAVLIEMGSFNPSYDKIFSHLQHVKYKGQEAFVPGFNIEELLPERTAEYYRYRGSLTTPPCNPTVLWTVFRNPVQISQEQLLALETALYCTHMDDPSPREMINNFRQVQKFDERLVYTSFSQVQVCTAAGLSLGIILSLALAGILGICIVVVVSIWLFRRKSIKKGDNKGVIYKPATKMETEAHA
Carbonic anhydrase 1, sequence (P00915 whole entry): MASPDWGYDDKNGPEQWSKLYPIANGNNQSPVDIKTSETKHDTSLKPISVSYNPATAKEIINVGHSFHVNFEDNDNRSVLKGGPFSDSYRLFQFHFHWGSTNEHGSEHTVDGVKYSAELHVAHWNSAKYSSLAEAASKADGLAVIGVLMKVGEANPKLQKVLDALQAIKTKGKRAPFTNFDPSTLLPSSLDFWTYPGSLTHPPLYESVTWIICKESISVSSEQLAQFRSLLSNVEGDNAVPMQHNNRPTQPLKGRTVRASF
Carbonic anhydrase 7, sequence (P43166 whole entry): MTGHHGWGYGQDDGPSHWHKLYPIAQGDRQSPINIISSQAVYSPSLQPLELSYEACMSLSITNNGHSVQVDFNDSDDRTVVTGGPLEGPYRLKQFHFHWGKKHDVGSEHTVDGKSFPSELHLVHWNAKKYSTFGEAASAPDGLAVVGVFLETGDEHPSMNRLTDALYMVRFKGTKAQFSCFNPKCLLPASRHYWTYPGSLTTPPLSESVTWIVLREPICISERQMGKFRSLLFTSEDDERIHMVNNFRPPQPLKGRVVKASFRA

Row | Structure (SMILES) | Ki [1] [nM] | Ki [2] [nM] | Ki [3] [nM] | Ki [4] [nM] | Ki [5] [nM] | Ki [6] [nM]
1 | CCOC(=O)c1cc(O)ccc1O | 690 |  |  |  |  | 
2 | CC(C)OC(=O)c1cc(O)ccc1O | 580 | 810 |  |  |  | 
3 | COC(=O)c1c(O)cccc1O | 700 | 810 |  |  |  | 
4 | CCOC(=O)c1c(O)cccc1O | 560 | 780 |  |  |  | 
5 | CC(C)OC(=O)c1c(O)cccc1O | 530 | 790 |  |  |  | 
6 | CC(C)OC(=O)c1ccc(O)c(O)c1 | 420 | 800 |  |  |  | 
7 | CC(C)OC(=O)c1cc(O)cc(O)c1 | 700 | 900 |  |  |  | 
8 | O=C(O)c1cc(-c2c3ccc(=O)cc-3oc3cc(O)ccc23)ccc1NC(=S)NCCc1ccc(O)c(O)c1 | 4400 | 6700 |  |  |  | 
9 | Cc1cc(C)[n+](CCc2ccccc2C)c(C)c1 | 6800 | 830 |  |  |  | 
10 | Cc1cc(C)[n+](CCc2ccccc2-c2ccccc2)c(C)c1 | 4700 | 710 |  |  |  | 
11 | Nc1cc(O)ccc1Cl | 4900 | 4700 |  |  |  | 
12 | Cc1cc(C)[n+](-c2cccc(O)c2)c(C)c1 | 320 | 680 |  |  |  | 
13 | Cc1cc(C)[n+](-c2cc(O)ccc2Cl)c(C)c1 | 490 | 700 |  |  |  | 
14 | CC(C)OC(=O)c1ccc(O)cc1O | 510 | 310 |  |  |  | 
15 | CCOC(=O)c1cc(O)cc(O)c1 | 660 | 910 |  |  |  | 
16 | O=C(O)c1c(O)cccc1O | 5200 | 5900 | 5700 | 6600 | 7200 | 6500
17 | CCOC(=O)c1ccc(O)cc1O | 520 | 820 |  |  |  | 
18 | CCOC(=O)c1ccc(O)c(O)c1 | 610 | 780 |  |  |  | 

Row | Structure (SMILES) | Ki [1] [nM] | Ki [2] [nM] | Ki [3] [nM] | Ki [4] [nM] | Ki [5] [nM] | Ki [6] [nM]
19 | COc1ccc(OC)cc1 [1,4-DIMETHOXYBENZENE] |  |  |  | 3880 |  | 6790
20 | O=C(O)c1ccc(O)cc1O [2,4-DIHYDROXYBENZOIC ACID] | 4900 | 68000 | 5200 | 72000 | 7500 | 70000
21 | O=C(O)c1cc(O)cc(O)c1 [3,5-DIHYDROXYBENZOIC ACID] |  |  |  | 7170 |  | 650
22 | Nc1cccc(O)c1 [3-AMINOPHENOL] | 4700 | 4900 | 4900 | 5900 | 7700 | 7200
23 | CCOC(=O)/C=C/c1ccc(O)cc1 [ETHYL P-COUMARATE] | 710 | 610 |  |  |  | 
24 | CCOC(=O)c1ccc(O)cc1 [ETHYLPARABEN] | 4800 | 8200 | 7900 | 8700 | 8600 | 7700
25 | O=C(O)c1cc(O)ccc1O [GENTISIC ACID] |  | 6600 | 4200 | 68000 | 7300 | 67000
26 | CC(C)OC(=O)/C=C/c1ccc(O)cc1 [ISOPROPYL 3-(4-HYDROXYPHENYL)ACRYLATE] | 520 | 680 | 540 | 690 | 760 | 730
27 | CC(C)OC(=O)c1ccc(O)cc1 [ISOPROPYL 4-HYDROXYBENZOATE] | 4400 | 7400 |  |  |  | 
28 | COC(=O)c1ccc(O)cc1O [METHYL 2,4-DIHYDROXYBENZOATE] | 760 | 890 | 830 | 850 | 950 | 860
29 | COC(=O)c1cc(O)ccc1O [METHYL 2,5-DIHYDROXYBENZOATE] | 770 | 840 |  |  |  | 
30 | COC(=O)c1cc(O)cc(O)c1 [METHYL 3,5-DIHYDROXYBENZOATE] | 690 | 810 |  |  |  | 
31 | COC(=O)/C=C/c1ccc(O)cc1 [METHYL P-HYDROXYCINNAMATE] | 800 | 850 | 780 | 820 | 810 | 830
32 | COC(=O)c1ccc(O)c(O)c1 [METHYL PROTOCATECHUATE] | 580 | 790 |  |  |  | 
33 | COC(=O)c1ccc(O)cc1 [METHYLPARABEN] | 3400 | 5500 | 2600 | 780 | 820 | 4100
34 | O=C(O)c1ccc(O)c(O)c1 [PROTOCATECHUIC ACID] |  |  |  | 7870 |  | 690
35 | COc1ccc(C(=O)O)cc1OC [VERATRIC ACID] |  |  |  | 7150 |  | 740
